Experimental data: patent US9845482B2, “Compositions and methods for enhancing bioenergetic status in female germ cells” (The General Hospital Corporation, priority 2011, dated 2017)
“Also recorded” adds a separate entry of the source. Like-named read-outs stand apart in the source and are kept apart here.

Tests used:
[1] = tested on: murine oogonial stem cells (OSCs); experiment: NAD+/NADH quantitation in murine OSCs treated with NMN; type: cell-based; conditions: NMN added at 12 h and 6 h prior to analysis
Protocol: FIGS. 39A-39C are graphs showing that nicotinamide mononucleotides raise cellular NAD^+ and NAD+/NADH in murine oogonial stem cells (OSCs). Oogonial stem cells were isolated from dissociated ovaries using a FACS based sorting protocol to purify OSCs free of contaminating oocytes (see Example 1). Cells were maintained in culture medium consisted of minimum essential medium α (MEMα), 10% FBS, 1 mM sodium pyruvate, 1 mM non-essential amino acids, 2 mM L-glutamine, 0.1 mM β-mercaptoethanol (Sigma Aldrich Corporation, St. Louis, Mo., USA), 10 ng/ml-1 LIF (Millipore), 1× N-2 MAX Media Supplement (R&D) 10 ng/ml EGF (Epidermal growth factor, Recombinant human; Gibco Division of ThermoFisher Scientific, Waltham, Mass., USA), 40 ng/ml human GDNF (glial cell line-derived neurotrophic factor; R&D systems), 1 ng/ml human bFGF (basic fibroblast growth factor; Gibco Division of ThermoFisher Scientific, Waltham, Mass., USA).
Oogonial stem cells were isolated from dissociated ovaries using a FACS based sorting protocol to purify OSCs free of contaminating oocytes (for details, see Example 1), Cells were maintained in culture medium consisted of minimum essential medium α (MEMα), 10% FBS, 1 mM sodium pyruvate, 1 mM […], 2 mM L-1-glutamine, 0.1 mM β-mercaptoethanol (Sigma), 10 ng/ml-1 LIF (Millipore), 1× N-2 MAX Media Supplement (R&D) 10 ng/ml EGF (Epidermal growth factor, Recombinant human; Gibco Division of Thermofisher Scientific, Waltham, Mass., USA), 40 ng/nil human GDNF (glial cell line-derived neurotrophic factor; R&D systems), 1 ng/ml human bFGF (basic fibroblast growth factor; Gibco Division of Thermofisher Scientific, Waltham, Mass., USA)
For all experiments 25,000 cells were plated in each well of a 24 well plate. Cells were allowed to attach for twenty-four hours and then were treated with NMN (β-Nicotinamide mononucleotide; Sigma). Unless otherwise stated, NMN was added twice to the cells, first at twelve hours and then again at six hours prior to analysis (12+6 h). Mitochondrial DNA Copy number was analysed as follows. Total cellular DNA was isolated from cells at the indicated time points using DNeasy Blood & Tissue Kit (Qiagen) according to the manufacturer's instructions. Mitochondrial DNA copy number was quantified using LIGHTCYCLER 480 SYBR® Green I Master (Roche Applied Science, Penzberg, Germany) using the following primers on a LIGHTCYCLER480 PCR machine (Roche Applied Science (Penzberg, Germany).
OSCs and oocytes treated with an NAD precursor (e.g. […] ie. “NMN”, see FIG. 38) had increased NAD^+, NAD^+:NADH, and mitochondrial DNA content (FIG. 40).

[2] = tested on: cultured murine oogonial stem cells; experiment: Spontaneous oocyte formation in cultured murine OSCs after NMN; type: cell-based; conditions: 25,000 OSCs per well of a 24-well plate
Protocol: FIG. 41 is a graph showing that nicotinamide mononucleotide increases spontaneous oocyte formation in cultured murine oogonial stem cells. For assessment of spontaneous oocyte formation, each well of a 24-well plate was seeded with 25,000 OSCs, and the number of oocytes formed and released into the medium per well was assessed the second day after seeding as well as the designated time points after NMN treatment.
Each well of a 24-well plate was seeded with 25,000 OSCs. The number of oocytes formed and released into the medium per well was assessed the second day after seeding as well as the designated time points after NMN treatment. […] NMN treatment is also expected to enhance the function of OCSsOSCs, oocytes, granulose cells, and blood vessels in the ovary.

C2C12 cells = experiment: Mitochondrial function in C2C12 cells with NMN (scrambled vs SIRT1 shRNA); type: cell-based; conditions: SIRT1-dependent manner
Description: (§1) NMN is delivered by intraperitoneal (I.P.) injection and raises NAD levels in brain, heart and skeletal muscle ˜30-100%. NMN increases mitochondrial function in C2C12 cells in a SIRT1-dependent manner (FIGS. 43C, D). sh Ct1=scrambled shRNA, Sh SIRT1=shRNA against SIRT1.

young and old mice = experiment: NAD+ levels in vivo after systemic NMN
Protocol: FIG. 42 is a graph showing that the NAD^+ precursor NMN raises NAD^+ levels in vivo in young and old mice. Cardiac [NAD^+] declines with age and is reversed by NMN treatment (n=3; 200 mg·kg·d. I.P. for 1 week).
as §1
(§2) NMN and other compounds that increase NAD^+ levels are useful for increasing fertility or otherwise reducing or reversing infertility in a female subject. In one embodiment, such compounds are delivered to a subject orally, by intraperitoneal injection (IP), or subcutaneously to increase the probability that the subject will conceive and deliver healthy offspring. Systemic administration of the NAD^+ precursor NMN raised NAD^+ levels in vivo in young and old mice. Cardiac [NAD^+] declines with age. This decline in NAD^+ was reversed by NMN treatment (n=3; 200 mg·kg·d. I.P. for 1 week)(FIG. 42). […] In another embodiment, NMN and other compounds that increase NAD^+ levels are delivered to an OSC, oocyte, blasotcyst, sperm, or isolated mitochondria in vitro. For example, such compounds are delivered to a germ cell prior to, during or following IVF. In another embodiment, a compound of the invention is used to enhance the yield or preservation of mitochondria from an OSC, oocyte, blasotcyst, sperm, or isolated mitochondria in vitro.

murine OSCs = experiment: Mitochondrial DNA copy number in murine OSCs treated with NMN; type: cell-based
Description: FIG. 40 is a graph showing that nicotinamide mononucleotide increases mitochondrial DNA content in murine OSCs. Total cellular DNA was isolated from cells at the indicated time points using DNEASY® Blood & Tissue Kit (Qiagen, Venlo, The Netherlands) according to the manufacturer's instructions. Mt DNA copy number was quantified using LIGHTCYCLER®480 SYBR® Green I Master (Roche Applied Science, Penzberg, Germany) using a LIGHTCYCLER®480 PCR machine (Roche Applied Science, Penzberg, Germany). […]
For all experiments 25,000 cells were plated in each well of a 24 well plate. […] Mitochondrial DNA Copy number was analysed as follows. […] Mitochondrial DNA copy number was quantified using LIGHTCYCLER 480 SYBR® Green I Master (Roche Applied Science, Penzberg, Germany) using the following primers on a LIGHTCYCLER480 PCR machine (Roche Applied Science (Penzberg, Germany).

[3] = tested on: skeletal muscle of 24-month old mice; experiment: Mitochondrial function in vivo after NMN; conditions: 1 week of treatment, I.P.
Description: as §1, §2

OSCs from mice = experiment: Screen of mouse OSCs for compounds that enhance mitochondrial function (mtDNA, ATP, mitochondrial mass, membrane potential, gene expression); type: cell-based; conditions: 24 hours
Description: Female infertility due to chemotherapy, aging and premature ovarian failure (POF) is due in part to a decline in mitochondrial function in oocytes and OSCs. Accordingly, OSCs from mice were used to screen for small compounds that enhance mitochondrial function (“bioenergetic status”) in female germline cells. Assays for enhancing mitochondrial function included mtDNA content, ATP, NAD+/NADH, mitochondrial mass, mitochondrial membrane potential, and gene expression of known mitochondrial mass regulators and electron transport chain components.
All the compounds were dissolved in DMSO. For screening purposes the cells were treated with the vehicle (0.001% DMSO) or with 25 or 50 μM of each compound (except for berberine, which the concentrations used for the screen were 5 μM and 25 μM) for 24 hours. For validation of the top 6 hits, cells were treated with vehicle (0.001% DMSO) or either 5 or 25 μM of each compound for 24 hours. For the gene expression profile, the cells were treated with the concentration that was considered to work better in the previous validation assays.
Mitochondrial membrane potential was measured with a fluorescent probe, Tetramethylrhodamine methyl ester (TMRM) (Sigma) as described before (Rolo A. P. Biochim. Biophys. Acta 2003 1637: 127-132). Briefly the cells were loaded with 6.6 μM TMRM in HBSS buffer at 37° C. for 15 minutes in the dark. The supernatant was then aspirated, and the cells returned to the original volume with KHH. TMRM is a membrane-permeable cationic fluorophore that accumulates electrophoretically in mitochondria in proportion to their mitochondrial membrane potential (Ehrenberg B. V. et al. Biophys. J. 1988 53:785-794). Cell suspensions (200 μl containing 10^5 cells) were loaded into 96-well plates and fluorescence measured using excitation and emission wavelengths of 485 and 590 nm, respectively. Mitochondrial membrane potential was estimated, taking into account the complete depolarization caused by carbonyl cyanide p-(trifluoromethoxy)phenylhydrazone (FCCP).
For mtDNA analysis, total DNA was extracted with DNeasy blood and tissue kit (QIAGEN). mtDNA was amplified using primers specific for the mitochondrial cytochrome c oxidase subunit 2 (COX2) gene and normalized to genomic DNA by amplification of the ribosomal protein s18 (rps18) nuclear gene. Primers were designed using the IDT software (IDT).
ATP content was measured using a luciferase-based assay with a commercial kit according to the manufacturer's instructions (Roche Applied Science, Penzberg, Germany) and normalized to protein content in each sample.
Mitochondrial mass was evaluated using the fluorescent probe N-nonyl acridine orange (NAO), briefly the cells were incubated in culture media containing 10 nM of NAO for 30 minutes at 37° C. in the dark. The cells were then trypsinized and resuspended in culture media without NAO. The NAO fluorescence intensity was then determined by flow cytometry on the FACSCALIBUR® (BD Biosciences, San Jose, Calif., USA) using the 488 nm laser.
For gene expression analysis, RNA from skeletal muscle tissue and C2C12 cells were extracted with RNeasy mini kit (QIAGEN) according to the instructions and quantified using the NanoDrop 1000 spectrophotometer (Thermo Scientific). cDNA was synthesized with the iSCRIP cDNA synthesis kit (BioRad) using 200 ng of RNA. Quantitative RT-PCR reactions were performed using 1 μM of primers and LIGHTCYCLER® 480 SYBR® Green Master (Roche Applied Science, Penzberg, Germany) on an LIGHTCYCLER® 480 detection system (Roche Applied Science, Penzberg, Germany). Calculations were performed by a comparative method (2-ΔΔCT) using actin as an internal control. Primers were designed using the IDT software (IDT).

Mouse OSCs = experiment: NAD+ and NADH levels in mouse OSCs treated with mitochondrial enhancers; type: cell-based; conditions: 24 hours
Protocol: FIG. 35 depicts levels of NAD+ (A) and NADH (B) in OSCs treated with mitochondrial enhancers. Mouse OSCs maintained in culture (Zou et al., Nat Cell Biol 2009 11:631-636) were exposed to the indicated test compounds for 24 hours and then assessed for levels of NAD+ and NADH. Female infertility due to chemotherapy, aging and premature ovarian failure (POF) is due in part to a decline in mitochondrial function in oocytes and OSCs. Accordingly, OSCs from mice were used to screen for small compounds that enhance mitochondrial function (“bioenergetic status”) in female germline cells. Assays for enhancing mitochondrial function included mtDNA content, ATP, NAD+/NADH, mitochondrial mass, mitochondrial membrane potential, and gene expression of known mitochondrial mass regulators and electron transport chain components. All the compounds were dissolved in DMSO. For screening purposes the cells were treated with the vehicle (0.001% DMSO) or with 25 or 50 μM of each compound (except for berberine, which the concentrations used for the screen were 5 μM and 25 μM) for 24 hours. For validation of the top 6 hits, cells were treated with vehicle (0.001% DMSO) or either 5 or 25 μM of each compound for 24 hours. For the gene expression profile, the cells were treated with the concentration that was considered to work better in the previous validation assays.

[4] = listed as nicotinamide mononucleotides
[5] = listed as nicotinamide mononucleotide

Structure (SMILES)	NAD+/NADH [1]	cellular NAD^+ [1]	NAD+/NADH [1, 4]	cellular NAD^+ [1, 4]	spontaneous oocyte formation (rate of egg formation, EFA) [2]	spontaneous oocyte formation (rate of egg formation, EFA) [2, 5]	mitochondrial function in C2C12 cells (C2C12 cells)	decline of cardiac [NAD^+] with age (young and old mice; 200 mg·kg·d. I.P. for 1 week, n=3)	raise of NAD levels in brain, heart and skeletal muscle (young and old mice; intraperitoneal (I.P.) injection)	NAD^+ levels in vivo (young and old mice; young and old mice, systemic administration)	mitochondrial DNA content (murine OSCs)	mitochondrial DNA content (murine OSCs; [5])	mitochondrial function in vivo (decline in skeletal muscle of 24-month old mice) [3]	mitochondrial parameters (OSCs from mice)	activity above the baseline (DMSO alone), scored as a positive result (OSCs from mice; 25 or 50 μM (berberine 5 μM and 25 μM))	NAD^+ levels (Mouse OSCs)
NC(=O)c1ccc[n+]([C@@H]2O[C@H](COP(=O)([O-])O)[C@@H](O)[C@H]2O)c1 [NMN, β-Nicotinamide mononucleotide]	increased	increased	raise	raise	increased	increases	increases	reversed	30-100%	raises	increased	increases	restorative effect; also recorded: completely reversed			
N#CC(C#N)=Cc1ccc(O)cc1 [tyrphostin 8, 2[(4-hydroxyphenyl)methylidene]propanedinitrile]														increase mitochondrial parameters in a beneficial way	activity above the baseline	raise
